In patent US6855836B2, “17-Methylene steroids, process for their production and pharmaceutical compositions that contain these compounds” (Jenapharm GmbH & Co. KG, priority 2000, dated 2005):

Experiments:
Progesterone-receptor = biological target: T1, Progesterone-receptor (Oryctolagus cuniculus, UniProt P06186); assay: Progesterone-receptor binding to uterus-cytosol, tracer 3H-ORG 2058; conditions: rabbits, primed, 0-4° C., 18 hours, reference progesterone = 100%
T1 construct: from tissue; host or cells: uterus cytosol of primed rabbits
T1 sequence (P06186 1-930): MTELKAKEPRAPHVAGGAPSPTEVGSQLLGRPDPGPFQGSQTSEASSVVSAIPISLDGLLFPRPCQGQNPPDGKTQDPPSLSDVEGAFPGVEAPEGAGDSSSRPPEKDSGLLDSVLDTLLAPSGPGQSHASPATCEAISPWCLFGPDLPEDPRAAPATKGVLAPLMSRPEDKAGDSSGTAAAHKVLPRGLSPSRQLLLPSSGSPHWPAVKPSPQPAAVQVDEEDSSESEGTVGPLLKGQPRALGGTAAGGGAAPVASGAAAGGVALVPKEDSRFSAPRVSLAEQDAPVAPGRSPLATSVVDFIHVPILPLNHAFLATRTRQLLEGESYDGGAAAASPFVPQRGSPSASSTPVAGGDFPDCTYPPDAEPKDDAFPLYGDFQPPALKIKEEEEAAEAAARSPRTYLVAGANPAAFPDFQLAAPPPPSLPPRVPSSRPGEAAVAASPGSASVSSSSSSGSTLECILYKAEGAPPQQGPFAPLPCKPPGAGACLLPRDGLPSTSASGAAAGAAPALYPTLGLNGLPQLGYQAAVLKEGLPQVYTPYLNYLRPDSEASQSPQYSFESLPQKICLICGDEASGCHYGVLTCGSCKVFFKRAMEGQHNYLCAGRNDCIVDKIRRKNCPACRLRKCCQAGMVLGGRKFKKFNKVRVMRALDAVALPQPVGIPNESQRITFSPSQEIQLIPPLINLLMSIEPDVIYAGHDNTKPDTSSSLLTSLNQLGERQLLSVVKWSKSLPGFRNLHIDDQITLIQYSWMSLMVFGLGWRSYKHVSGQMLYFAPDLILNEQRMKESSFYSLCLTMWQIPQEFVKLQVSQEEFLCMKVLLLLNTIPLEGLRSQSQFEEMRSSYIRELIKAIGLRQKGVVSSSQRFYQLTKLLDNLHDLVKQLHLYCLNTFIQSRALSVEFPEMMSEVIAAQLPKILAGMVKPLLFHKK

5α-Reductase-Type 2 = biological target: T2, 5α-Reductase-Type 2 (Homo sapiens, UniProt P31213); assay: 5α-Reductase-type 2-activity in genital dermal homogenates; assay type: biochemical; conditions: optimized conditions at pH 5.5
T2 construct: 5α-Reductase-Type 2-Activity in Genital Dermal Homogenates; from tissue; host or cells: genital dermal (skin) homogenate
T2 sequence (P31213 1-254): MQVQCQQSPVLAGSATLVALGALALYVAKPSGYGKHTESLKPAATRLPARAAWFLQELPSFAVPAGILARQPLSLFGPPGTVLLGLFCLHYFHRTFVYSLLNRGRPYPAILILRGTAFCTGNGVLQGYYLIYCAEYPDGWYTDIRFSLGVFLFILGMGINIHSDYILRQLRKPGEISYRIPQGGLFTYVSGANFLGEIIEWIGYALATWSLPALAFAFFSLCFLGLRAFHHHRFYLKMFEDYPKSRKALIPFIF
Description: (§1) Data for 5α-reductase-type 2-activity in genital dermal homogenates and in vivo data for gestagenic activity are presented by way of example in Tables 1 and 2 below.

pregnancy maintenance = assay: Mouse pregnancy maintenance test after s.c. administration (gestagenic activity); assay type: in vivo
Description: as §1

In the case of C[C@]12CC[C@H]3[C@@H](CCC4=C(Cl)C(=O)CC[C@@H]43)[C@@H]1CC/C2=C\Cl [Compound 1, E-17-Chloromethylene-4-chloro-estr-4-en-3-one], the “PR, Progesterone = 100% (progesterone-receptor binding)” value (Progesterone-receptor) is reported as 60%, the IC50 (5α-Reductase-Type 2) is reported as 250 nM and the Pregnancy rate achieved (pregnancy maintenance; 0.1 mg/animal/day s.c.) is reported as 0/5. The Pregnancy rate achieved (pregnancy maintenance; 1.0 mg/animal/day s.c.) was 5/5.
